In doi:10.1101/2024.08.25.609621 (bioRxiv, 2024):
Like-named read-outs stand apart in the source and are kept apart here.

What was measured:
[1] = target: SARS-CoV-2 NSP3 macrodomain (Mac1), P43 crystal form (Severe acute respiratory syndrome coronavirus 2, UniProt P0DTD1); type: binding; conditions: for PanDDA run, TFA/DMSO background map: 1-BDC / PanDDA run, TFA/DMSO background map: Hit: crystal soak 10 mM; for Number of isomers bound: ligand modeling in Mac1 crystal soak
[2] = target: SARS-CoV-2 NSP3 macrodomain (Mac1) (Severe acute respiratory syndrome coronavirus 2, UniProt P0DTD1); test: biochemical; type: binding
[3] = Single dose, concentration 200 μM, read-out: Average % competition
[4] = preliminary screen, compound at 200 μM, mean of 3-4 technical replicates, read-out: % competition in HTRF assay
[5] = Single dose, concentration 200 μM, read-out: SARS CoV-2 macrodomain HTRF assay: Average % competition

| SMILES | PanDDA run, TFA/DMSO background map: 1-BDC [1] | PanDDA run, TFA/DMSO background map: Hit [1] | Number of isomers bound [1] | inhibition at 200 µM [2, 3] | inhibition at 200 µM [2, 4] | Isomers modeled ([1]; stereoisomer(s) of ligand modeled in Mac1 crystal structure) | Ligand efficiency (binding enery per heavy atom) ([2]; SARS CoV-2 macrodomain HTRF assay) | IC50 ([2]; SARS CoV-2 macrodomain HTRF assay, dose-response, read-out: IC50) | Ki ([2]; SARS CoV-2 macrodomain HTRF assay, dose-response, read-out: Ki) | inhibition at 200 µM [2, 5] |
| --- | --- | --- | --- | --- | --- | --- | --- | --- | --- | --- |
| OCC(Nc1ncnc2[nH]ccc12)C1CCC1 (centres unmarked) [AVI-3638] | 0.1 | TRUE | 1 | 77% | 77% | – | – | – | – | – |
| O=C(O)C(F)(F)F.O[C@H]1CCC[C@@H]1Nc1ncnc2[nH]ccc12 [AVI-3639] | 0.09 | TRUE | 1 | 74% | 74% | – | – | – | – | – |
| OCC(CC1CCC1)Nc1ncnc2[nH]ccc12 (centres unmarked) [AVI-3641] | 0.11 | TRUE | 1 | 32% | 32% | – | – | – | – | – |
| OCC(CC(O)c1ccccc1)Nc1ncnc2[nH]ccc12 (centres unmarked) [AVI-3642] | 0.17 | TRUE | 1 | < 10% | < 10% | – | – | – | – | – |
| CCC(CO)Nc1ncnc2[nH]ccc12 (centres unmarked) [AVI-3643] | 0.14 | TRUE | 1 | 63% | 63% | – | – | – | – | – |
| C#CCC(CO)Nc1ncnc2[nH]ccc12 (centres unmarked) [AVI-3644] | 0.11 | TRUE | 1 | 43% | 43% | – | – | – | – | – |
| OC1CCCN(c2ncnc3[nH]ccc23)C1 (centres unmarked) [AVI-3646] | 0.13 | TRUE | 1 | 20% | 20% | – | – | – | – | – |
| CC(C)(C)CC(CO)Nc1ncnc2[nH]ccc12 (centres unmarked) [AVI-3648] | 0.16 | TRUE | 1 | 27% | 27% | – | – | – | – | – |
| OCC(Nc1ncnc2[nH]ccc12)C1CCCC1 (centres unmarked) [AVI-3649] | 0.11 | TRUE | 1 | 68% | 68% | – | – | – | – | – |
| OCC(Cc1c[nH]c2ccccc12)Nc1ncnc2[nH]ccc12 (centres unmarked) [AVI-3650] | 0.11 | TRUE | 2 | 71% | 71% | R,S | – | – | – | – |
| OCC(Nc1ncnc2[nH]ccc12)C1CC1 (centres unmarked) [AVI-3651] | 0.16 | TRUE | 1 | – | – | – | 0.38 | 48 µM | 45 µM | – |
| OC(c1ccccc1)C1CCCN1c1ncnc2[nH]ccc12 (centres unmarked) [AVI-3652] | 0.16 | TRUE | 1 | – | 35% | – | – | – | – | 35% |
| CC1CCN(c2ncnc3[nH]ccc23)C1CO (centres unmarked) [AVI-3655] | 0.18 | TRUE | 1 | – | 75% | – | – | – | – | 75% |
| CO[C@@H]1C[C@H](CO)N(c2ncnc3[nH]ccc23)C1 [AVI-3656] | – | – | 1 | – | 41% | – | – | – | – | 41% |
| Cn1cc(CC(CO)Nc2ncnc3[nH]ccc23)cn1 (centres unmarked) [AVI-3657] | 0.09 | TRUE | 1 | 24% | 24% | – | – | – | – | – |
| OCC(CC1OCCO1)Nc1ncnc2[nH]ccc12 (centres unmarked) [AVI-3658] | – | – | 1 | 11% | 11% | – | – | – | – | – |
| OCC(Nc1ncnc2[nH]ccc12)c1ccco1 (centres unmarked) [AVI-3659] | 0.08 | TRUE | 1 | 55% | 55% | – | – | – | – | – |
